Patent US20140378515A1, “IMMUNOSUPPRESSIVE COMPOUNDS” (priority 2013, published 2014)

Legend:
[1] = test system: T-cell proliferation; experiment: T-cell proliferation assay (PHA-stimulated PBMNCs, 3H-thymidine incorporation); format: cell-based, human; set-up: unit not given here; conditions: PHA 5 μg/mL stimulated PBMNCs
Protocol: The diluted blood was then layered onto lymphocyte separation medium (MP Biomedicals, Inc., Ohio, USA) and centrifuged at 400 g for 20 min at 25° C. […] Plates were then incubated at 37° C. in a humidified atmosphere of 5% CO2 in air for 72 hours. To each well, 0.5 μCi [methyl ^3H]-thymidine (Amersham Place Little Chalfont, Buckinghamshire, UK) was added for an additional 18 hours. Cells were harvested using a cell harvester (Inotech, Dottikon, Switzerland), and incorporation and level of radioactivity was measured by a liquid scintillation counter (Beckman coulter, LS 6500, Fullerton, Calif., USA).

[2] = test system: IL-2 production; experiment: IL-2 production by PHA/PMA stimulated PBMCs (ELISA); format: cell-based, human; conditions: experimental IL-2 IC50 listed in Table 3
Protocol: The PBMCs were cultured in a 96-well flat-bottomed plate (1.0×10^5 cell/well) in the presence or absence of three concentrations of test compounds (1.0, 5.0 and 20 μg/mL), and phytohemagglutinin (PHA) phorbol myristate acetate (PMA) in a final concentration of 5 ng/mL and 20 ng/mL, respectively. After an incubation period of 18 h at 37° C. in a humidified atmosphere of 5% CO2 in air, the supernatant was collected for IL-2 determination. Interleukin-2 levels were measured by using enzyme-linked immunosorbent assay (ELISA) development kit (R&D systems, Minneapolis, Minn., USA). The assay was performed according to the manufacturer's instructions. Briefly, a 96-well flat-bottomed ELISA plate was coated with 4.0 μg/mL mouse anti-human IL-2, in PBS, pH 7.4. Then, re-combinant human IL-2 standards and culture supernatant samples were added and incubated for 2 h followed by washing steps and then the addition of biotinylated goat anti-human IL-2. After an incubation period of 2 h at room temperature, the plates were again washed and streptavidin conjugated horse raddish peroxidase was added and incubated for additional 20 min at room temperature. After the final washes, an enzyme substrate solution of H2O2 and tetra methyl benzidine (1:1 v/v) was added and the color was allowed to develop at room temperature in the dark. The plates were then read at 450 nm in a plate reader (DIAReader GMBH, Wr. Neudorf, Austria). The results were analyzed using Microsoft Excel.

[3] = test system: ROS produced by human blood phagocytes; experiment: Oxidative burst, luminol-enhanced chemiluminescence in whole blood; format: cell-based; conditions: serum opsonized zymosan
Protocol: Formation of the reactive oxygen species (ROS) in whole blood, during the oxidative burst was measured by the luminol-enhanced chemiluminescence assay. In brief, three concentrations of each compound (1.0, 10 and 100 μg/mL) were prepared in 25 μL of Hank's Balanced salt solution containing calcium chloride and magnesium sulfate (HBSS^++) in a half area 96-well white flat-bottomed plate (Sigma Aldrich, Steinheim, Germany) in a final volume of 100 μL. Then 25 μL of whole blood diluted 1:50 in suspension of HBSS^++ was added.
Positive and negative controls and blank wells were included. Cells and compounds were incubated for 30 minutes at 37° C., then 25 μL luminol [3-aminophthalhydrazide] (Research Organics Cleveland, Ohio, USA), were added into each well followed by 25 μL of serum opsonized zymosan (Saccharomyces cerevisiae origin) purchased from Fluka, Buchs (Switzerland) was added except for negative and blank wells. The ROS chemiluminescence kinetic was monitored with a luminometer from Labsystems (Helsinki, Finland), for 50 minutes in the repeated scan mode. Peak and total integral chemiluminescence readings were expressed in the relative light unit.

[4] = test system: NO produced by mouse macrophages J774.2 cell line; experiment: Nitrite accumulation in LPS-stimulated J774.2 macrophages (Griess method); format: cell-based; conditions: LPS-stimulated J774.2, 24 hours
Protocol: The mouse macrophage cell line J774.2 obtained from ECACC, Salisbury, Wiltshire (UK) was cultured in T75 flasks in complete DMEM containing 10% fetal bovine serum and supplemented with 1% streptomycin/penicillin. Flasks were kept at 37° C. in the atmosphere of humidified air containing 5% CO2. Cell were then seeded in 24 well (10^6 cells/mL) and nitric oxide synthase (NOS-2) in the macrophages was induced by addition of 20 μg/mL E. coli lipopolysaccharide (DIFCO Laboratories, Michigan, USA). The test compounds were added at a concentration of 25 μg/mL soon after LPS stimulation and incubated at 37° C. in 5% CO2. Cell culture supernatant was collected after 24 hours. Nitrite accumulation in J774.2 cell culture supernatant was measured using the Griess method, where 50 μL of 1% sulphanilamide in 2.5% phosphoric acid, followed by 50 μL of 0.1% naphtyl-ethylene diamine dihydrochloride in 2.5% phosphoric acid were added to 50 μL culture medium. After 10 minutes of incubation at room temperature the absorbance at 550 nm was read. Micromolar concentrations of nitrite were calculated from standard curve constructed with sodium nitrite a reference compound. The results were expressed as means±SD of duplicate readings.

[5] = test system: 3T3 NIH mouse embryo fibroblast cell line
Protocol: The 3T3-NIH cells were suspended in Dulbecco's Modified Eagle's Medium (DMEM) formulated with 10% FBS. Using flat bottomed plates, cells were plated at a concentration of 6×10^4 cells/mL and incubated for 24 h at 37° C. and 5% CO2 environment. […] Following exposure to each compound, cell viability was assessed by using 0.5 mg/mL of MTT {3-(4,5-dimethylthiazol-2-yl)-2,5-diphenyltetrazolium bromide for 4 h followed by the removal of supernatant and addition of DMSO to solubilize the formazan complex. The plates were read at 540 nm after one minute shaking and readings were processed using MS Excel software. The results were expressed as means±SD of triplicate readings.

## COc1cccc(-c2nc3ccccc3s2)c1O [Compound 2]
[1]
  IC50 T-cell proliferation: 2.97±0.3
[2]
  IC50: <1 µg/mL
[3]
  IC50 (μg/mL) for phagocytes ROS: 1.9 ± 0.6 µg/mL
[4]
  % of NO inhibited by 25 μg/mL of compound: 28.9 ± 1.3%
[5]
  Cytotoxicity IC50: >25 µg/mL
